# Results from PubChem BioAssay AID1259407 (Chemical Carcinogenesis Research Information System (CCRIS), 2018).
# Calls of active or inactive are those of the source. No rule for the calls is given here.
# Tested on: CCRIS mutagenicity, Ames/micronucleus/aberration tests
# Experiment: CCRIS mutagenicity studies
# [1] = Test System: AMES SALMONELLA TYPHIMURIUM, Strain/Indicator: TA98, Metabolic Activation: NONE, Method: STANDARD PLATE
# [2] = Test System: AMES SALMONELLA TYPHIMURIUM, Strain/Indicator: TA98, Metabolic Activation: RAT, LIVER, S-9, AROCLOR 1254, Method: STANDARD PLATE
# [3] = Test System: AMES SALMONELLA TYPHIMURIUM, Strain/Indicator: TA100, Metabolic Activation: NONE, Method: STANDARD PLATE
# [4] = Test System: AMES SALMONELLA TYPHIMURIUM, Strain/Indicator: TA100, Metabolic Activation: RAT, LIVER, S-9, AROCLOR 1254, Method: STANDARD PLATE
smiles,measurement,setting,value
Cc1cc(-c2cc(C)c(N)c(C)c2)cc(C)c1N,mutagenic call,"Test System: AMES SALMONELLA TYPHIMURIUM, Strain/Indicator: TA97, Metabolic Activation: HAMSTER, LIVER, S-9, AROCLOR 1254 (10%), Method: PREINCUBATION",inactive; negative
same,mutagenic call,"Test System: AMES SALMONELLA TYPHIMURIUM, Strain/Indicator: TA97, Metabolic Activation: HAMSTER, LIVER, S-9, AROCLOR 1254 (30%), Method: PREINCUBATION",inactive; negative
same,mutagenic call,"Test System: AMES SALMONELLA TYPHIMURIUM, Strain/Indicator: TA97, Metabolic Activation: NONE, Method: PREINCUBATION",inactive; negative
same,mutagenic call,"Test System: AMES SALMONELLA TYPHIMURIUM, Strain/Indicator: TA97, Metabolic Activation: RAT, LIVER, S-9, AROCLOR 1254 (10%), Method: PREINCUBATION",inactive; negative
same,mutagenic call,"Test System: AMES SALMONELLA TYPHIMURIUM, Strain/Indicator: TA97, Metabolic Activation: RAT, LIVER, S-9, AROCLOR 1254 (30%), Method: PREINCUBATION",inactive; negative
same,mutagenic call,"Test System: AMES SALMONELLA TYPHIMURIUM, Strain/Indicator: TA98, Metabolic Activation: HAMSTER, LIVER, S-9, AROCLOR 1254 (10%), Method: PREINCUBATION",inactive; negative
same,mutagenic call,"Test System: AMES SALMONELLA TYPHIMURIUM, Strain/Indicator: TA98, Metabolic Activation: HAMSTER, LIVER, S-9, AROCLOR 1254 (30%), Method: PREINCUBATION",inactive; negative
same,mutagenic call,"Test System: AMES SALMONELLA TYPHIMURIUM, Strain/Indicator: TA98, Metabolic Activation: NONE, Method: PREINCUBATION",inactive; negative
same,mutagenic call,"Test System: AMES SALMONELLA TYPHIMURIUM, Strain/Indicator: TA98, Metabolic Activation: RAT LIVER S-9, AROCLOR 1254, Method: PREINCUBATION",inactive; negative
same,mutagenic call,"Test System: AMES SALMONELLA TYPHIMURIUM, Strain/Indicator: TA98, Metabolic Activation: RAT, LIVER, S-9, AROCLOR 1254 (10%), Method: PREINCUBATION",inactive; negative
same,mutagenic call,"Test System: AMES SALMONELLA TYPHIMURIUM, Strain/Indicator: TA98, Metabolic Activation: RAT, LIVER, S-9, AROCLOR 1254 (30%), Method: PREINCUBATION",inactive; negative
same,mutagenic call,"Test System: AMES SALMONELLA TYPHIMURIUM, Strain/Indicator: TA100, Metabolic Activation: HAMSTER, LIVER, S-9, AROCLOR 1254 (10%), Method: PREINCUBATION",inactive; negative
same,mutagenic call,"Test System: AMES SALMONELLA TYPHIMURIUM, Strain/Indicator: TA100, Metabolic Activation: HAMSTER, LIVER, S-9, AROCLOR 1254 (30%), Method: PREINCUBATION",inactive; negative
same,mutagenic call,"Test System: AMES SALMONELLA TYPHIMURIUM, Strain/Indicator: TA100, Metabolic Activation: NONE, Method: PREINCUBATION",inactive; negative
same,mutagenic call,"Test System: AMES SALMONELLA TYPHIMURIUM, Strain/Indicator: TA100, Metabolic Activation: RAT LIVER S-9, AROCLOR 1254, Method: PREINCUBATION",inactive; negative
same,mutagenic call,"Test System: AMES SALMONELLA TYPHIMURIUM, Strain/Indicator: TA100, Metabolic Activation: RAT, LIVER, S-9, AROCLOR 1254 (10%), Method: PREINCUBATION",inactive; negative
same,mutagenic call,"Test System: AMES SALMONELLA TYPHIMURIUM, Strain/Indicator: TA100, Metabolic Activation: RAT, LIVER, S-9, AROCLOR 1254 (30%), Method: PREINCUBATION",inactive; negative
same,mutagenic call,"Test System: AMES SALMONELLA TYPHIMURIUM, Strain/Indicator: TA1535, Metabolic Activation: HAMSTER, LIVER, S-9, AROCLOR 1254 (10%), Method: PREINCUBATION",inactive; negative
same,mutagenic call,"Test System: AMES SALMONELLA TYPHIMURIUM, Strain/Indicator: TA1535, Metabolic Activation: HAMSTER, LIVER, S-9, AROCLOR 1254 (30%), Method: PREINCUBATION",inactive; negative
same,mutagenic call,"Test System: AMES SALMONELLA TYPHIMURIUM, Strain/Indicator: TA1535, Metabolic Activation: NONE, Method: PREINCUBATION",inactive; negative
same,mutagenic call,"Test System: AMES SALMONELLA TYPHIMURIUM, Strain/Indicator: TA1535, Metabolic Activation: RAT, LIVER, S-9, AROCLOR 1254 (10%), Method: PREINCUBATION",inactive; negative
same,mutagenic call,"Test System: AMES SALMONELLA TYPHIMURIUM, Strain/Indicator: TA1535, Metabolic Activation: RAT, LIVER, S-9, AROCLOR 1254 (30%), Method: PREINCUBATION",inactive; negative
same,mutagenic call,"Test System: Ames Salmonella typhimurium, Strain/Indicator: TA102, Metabolic Activation: None, Method: Preincubation",inactive; negative
same,mutagenic call,"Test System: Ames Salmonella typhimurium, Strain/Indicator: TA102, Metabolic Activation: Rat, liver, S-9, Aroclor 1254, Method: Preincubation",inactive; negative
same,mutagenic call,"Test System: MOUSE LYMPHOMA, Strain/Indicator: L5178Y (TK+/TK-), Metabolic Activation: RAT, LIVER, S-9, AROCLOR 1254, Method: SUSPENSION/PLATE",inactive; negative
same,mutagenic call,"Test System: MOUSE LYMPHOMA, Strain/Indicator: L5178Y (TK+/TK-), Metabolic Activation: RAT, LIVER, S-9, Method: SUSPENSION/PLATE",inactive; negative
Cc1cccc(C)c1C,mutagenic call,"Test System: AMES SALMONELLA TYPHIMURIUM, Strain/Indicator: TA97A, Metabolic Activation: NONE, Method: STANDARD PLATE",active; positive
same,mutagenic call,"Test System: AMES SALMONELLA TYPHIMURIUM, Strain/Indicator: TA97A, Metabolic Activation: RAT, LIVER, S-9, AROCLOR 1254, Method: STANDARD PLATE",inactive; negative
same,mutagenic call,[1],active; positive
same,mutagenic call,[2],inactive; negative
same,mutagenic call,[3],active; positive
same,mutagenic call,[4],inactive; negative
same,mutagenic call,"Test System: AMES SALMONELLA TYPHIMURIUM, Strain/Indicator: TA102, Metabolic Activation: NONE, Method: STANDARD PLATE",active; positive
same,mutagenic call,"Test System: AMES SALMONELLA TYPHIMURIUM, Strain/Indicator: TA102, Metabolic Activation: RAT, LIVER, S-9, AROCLOR 1254, Method: STANDARD PLATE",inactive; negative
COc1ccc([C@H]2O[C@H]2C(=O)c2ccccc2)cc1,mutagenic call,[1],inactive; negative
same,mutagenic call,[2],inactive; negative
same,mutagenic call,[3],active; positive
same,mutagenic call,[4],active; positive
Clc1ccc2cc3ccccc3cc2c1,mutagenic call,[1],inactive; negative
same,mutagenic call,[2],active; positive
same,mutagenic call,[3],inactive; negative
same,mutagenic call,[4],inactive; negative
CC(C)(C)NCC(O)c1cc(Cl)c(N)c(C(F)(F)F)c1 (configuration not stated),mutagenic call,[1],inactive; negative
same,mutagenic call,"Test System: AMES SALMONELLA TYPHIMURIUM, Strain/Indicator: TA98, Metabolic Activation: RAT, LIVER, S-9, PCB, Method: STANDARD PLATE",inactive; negative
same,mutagenic call,[3],inactive; negative
same,mutagenic call,"Test System: AMES SALMONELLA TYPHIMURIUM, Strain/Indicator: TA100, Metabolic Activation: RAT, LIVER, S-9, PCB, Method: STANDARD PLATE",inactive; negative
same,mutagenic call,"Test System: AMES SALMONELLA TYPHIMURIUM, Strain/Indicator: TA1535, Metabolic Activation: NONE, Method: STANDARD PLATE",inactive; negative
same,mutagenic call,"Test System: AMES SALMONELLA TYPHIMURIUM, Strain/Indicator: TA1535, Metabolic Activation: RAT, LIVER, S-9, PCB, Method: STANDARD PLATE",inactive; negative
same,mutagenic call,"Test System: AMES SALMONELLA TYPHIMURIUM, Strain/Indicator: TA1537, Metabolic Activation: NONE, Method: STANDARD PLATE",inactive; negative
same,mutagenic call,"Test System: AMES SALMONELLA TYPHIMURIUM, Strain/Indicator: TA1537, Metabolic Activation: RAT, LIVER, S-9, PCB, Method: STANDARD PLATE",inactive; negative
same,mutagenic call,"Test System: AMES SALMONELLA TYPHIMURIUM, Strain/Indicator: TA1538, Metabolic Activation: NONE, Method: STANDARD PLATE",inactive; negative
same,mutagenic call,"Test System: AMES SALMONELLA TYPHIMURIUM, Strain/Indicator: TA1538, Metabolic Activation: RAT, LIVER, S-9, PCB, Method: STANDARD PLATE",inactive; negative
